ChEMBL document CHEMBL1909046, “DrugMatrix in vitro pharmacology data”

What was measured:
[1] = DRUGMATRIX: Glutamate, NMDA, Agonism radioligand binding (ligand: [3H] CGP-39653); format: cell membranes, Rattus norvegicus, Wistar, Cerebral cortex, Membrane; conditions: Not Active = under 50% inhibition at 10 µM
Acetylcholinesterase = Acetylcholinesterase (Homo sapiens, UniProt P22303); experiment: DRUGMATRIX: Acetylcholinesterase enzyme inhibition (substrate: acetylthiocholine); format: cell-based, HEK293; conditions: Not Active = under 50% inhibition at 10 µM
Acetylcholinesterase, sequence (P22303 whole entry): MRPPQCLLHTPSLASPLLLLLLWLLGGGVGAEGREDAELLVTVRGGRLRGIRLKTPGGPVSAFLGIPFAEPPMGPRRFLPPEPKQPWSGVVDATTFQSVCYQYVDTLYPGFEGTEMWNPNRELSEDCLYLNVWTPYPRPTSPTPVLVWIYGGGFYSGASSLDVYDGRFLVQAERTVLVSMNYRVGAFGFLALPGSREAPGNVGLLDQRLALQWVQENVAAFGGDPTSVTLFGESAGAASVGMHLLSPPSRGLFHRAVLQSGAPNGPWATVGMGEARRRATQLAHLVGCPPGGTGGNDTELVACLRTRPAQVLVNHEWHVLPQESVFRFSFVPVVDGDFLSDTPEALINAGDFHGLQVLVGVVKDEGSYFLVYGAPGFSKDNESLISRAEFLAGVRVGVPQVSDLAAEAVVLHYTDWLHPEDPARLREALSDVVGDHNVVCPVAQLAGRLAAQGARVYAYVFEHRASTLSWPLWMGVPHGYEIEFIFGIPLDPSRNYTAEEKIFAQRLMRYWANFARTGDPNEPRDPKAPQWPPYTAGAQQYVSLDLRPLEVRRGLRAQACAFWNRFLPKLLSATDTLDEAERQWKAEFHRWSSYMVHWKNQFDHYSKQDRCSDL

Glycine receptor = Glycine receptor (Rattus norvegicus, UniProt P22771+P24524+P07727+P20781); format: cell membranes, Wistar, Spinal cord, Membrane; further: in other assays of this panel Not Active means under 50% inhibition at 10 µM
[2] = DRUGMATRIX: Platelet-Derived Growth Factor (PDGF) radioligand binding (ligand: [125I] PDGF); format: cell-based; conditions: nih3t3; Not Active = under 50% inhibition at 10 µM
Leukotriene C4 synthase = molecular target: T1, Leukotriene C4 synthase (Cavia porcellus, UniProt A6XA80); format: tissue-based, Lung;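 further: enzyme inhibition assay of leukotriene C4 synthase, using LTA4 as the substrate; in other assays of this panel Not Active means under 50% inhibition at 10 µM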
T1 sequence (A6XA80 whole entry): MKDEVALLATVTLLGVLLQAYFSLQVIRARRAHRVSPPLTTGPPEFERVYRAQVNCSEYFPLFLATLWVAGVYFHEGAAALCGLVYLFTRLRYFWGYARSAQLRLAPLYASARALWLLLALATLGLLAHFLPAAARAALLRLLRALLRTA

[3] = molecular target: Voltage-gated inwardly rectifying potassium channel KCNH2 (Homo sapiens, UniProt Q12809); conditions: hek293; further: in other assays of this panel Not Active means under 50% inhibition at 10 µM
Voltage-gated inwardly rectifying potassium channel KCNH2, sequence (Q12809 whole entry): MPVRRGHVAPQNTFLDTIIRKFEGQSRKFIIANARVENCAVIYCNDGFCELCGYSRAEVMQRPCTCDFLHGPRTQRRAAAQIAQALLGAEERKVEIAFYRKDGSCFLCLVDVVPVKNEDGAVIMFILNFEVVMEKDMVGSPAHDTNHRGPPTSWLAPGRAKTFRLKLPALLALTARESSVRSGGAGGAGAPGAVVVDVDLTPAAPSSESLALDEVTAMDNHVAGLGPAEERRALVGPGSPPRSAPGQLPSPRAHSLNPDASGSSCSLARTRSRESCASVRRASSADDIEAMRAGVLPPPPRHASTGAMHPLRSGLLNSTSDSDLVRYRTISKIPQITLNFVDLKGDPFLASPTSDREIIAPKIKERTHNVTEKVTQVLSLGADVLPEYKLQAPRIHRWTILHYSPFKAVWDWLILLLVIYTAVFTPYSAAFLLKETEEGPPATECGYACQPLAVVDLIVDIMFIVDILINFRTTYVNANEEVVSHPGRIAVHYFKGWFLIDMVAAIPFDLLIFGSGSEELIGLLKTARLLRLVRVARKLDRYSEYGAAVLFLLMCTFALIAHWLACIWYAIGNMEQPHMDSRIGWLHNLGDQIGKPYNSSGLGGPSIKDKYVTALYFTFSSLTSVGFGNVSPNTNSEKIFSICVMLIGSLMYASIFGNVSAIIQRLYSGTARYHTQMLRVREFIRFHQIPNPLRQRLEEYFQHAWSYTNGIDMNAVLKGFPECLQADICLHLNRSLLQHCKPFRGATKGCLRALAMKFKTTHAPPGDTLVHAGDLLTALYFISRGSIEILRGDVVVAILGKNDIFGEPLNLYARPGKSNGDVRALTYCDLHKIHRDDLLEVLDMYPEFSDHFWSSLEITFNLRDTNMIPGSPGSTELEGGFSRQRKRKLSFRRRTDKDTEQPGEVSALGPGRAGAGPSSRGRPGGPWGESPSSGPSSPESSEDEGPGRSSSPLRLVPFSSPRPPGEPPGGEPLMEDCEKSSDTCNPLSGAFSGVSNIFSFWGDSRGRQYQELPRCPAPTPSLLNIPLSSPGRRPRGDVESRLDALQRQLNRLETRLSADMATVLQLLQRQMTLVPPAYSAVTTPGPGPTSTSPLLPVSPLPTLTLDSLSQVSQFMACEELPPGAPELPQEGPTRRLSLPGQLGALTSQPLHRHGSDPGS

[4] = molecular target: Protein phosphatase 3 catalytic subunit alpha (Homo sapiens, UniProt Q08209); design: species or system Escherichia coli;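 further: inhibition of calcineurin (PP2B) enzyme activity, measured with DiFMUP as the substrate; in other assays of this panel Not Active means under 50% inhibition at 10 µM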
Melanocortin receptor 5 = Melanocortin receptor 5 (Homo sapiens, UniProt P33032); format: cell membranes, HEK293, Membrane; further: in other assays of this panel Not Active means under 50% inhibition at 10 µM
Melanocortin receptor 5, sequence (P33032 whole entry): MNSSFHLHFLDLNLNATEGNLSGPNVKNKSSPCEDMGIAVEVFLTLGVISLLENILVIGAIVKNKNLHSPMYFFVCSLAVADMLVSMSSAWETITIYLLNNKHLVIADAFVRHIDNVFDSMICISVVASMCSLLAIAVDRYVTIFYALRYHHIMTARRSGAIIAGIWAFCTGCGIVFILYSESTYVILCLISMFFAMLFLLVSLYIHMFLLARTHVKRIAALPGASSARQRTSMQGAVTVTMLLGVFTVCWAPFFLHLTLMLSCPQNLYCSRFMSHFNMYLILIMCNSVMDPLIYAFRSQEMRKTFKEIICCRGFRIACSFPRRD

Compound	IC50 [1]	Ki [1]	IC50 (Acetylcholinesterase; hek293)	IC50 (Glycine receptor)	IC50 [2]	Ki [2]	IC50 (Leukotriene C4 synthase)	IC50 [3]	Ki [3]	IC50 [4]	IC50 (Melanocortin receptor 5; hek293)	IC50 (Acetylcholinesterase; read-out: IC50) [µM]	Ki (Acetylcholinesterase; hek293)	Ki (Glycine receptor)	Ki (Leukotriene C4 synthase)	Ki [4]	Ki (Melanocortin receptor 5; hek293)	IC50 (Melanocortin receptor 5; read-out: IC50) [µM]	Ki (Melanocortin receptor 5; read-out: Ki) [µM]
COCCc1ccc(OCC(O)CNC(C)C)cc1 (stereo not drawn) [METOPROLOL]	Not Active	Not Active	Not Active	Not Active	Not Active	Not Active	Not Active	Not Active	Not Active	Not Active	Not Active								
COc1cc2nc(N3CCN(C(=O)C4COc5ccccc5O4)CC3)nc(N)c2cc1OC (stereo not drawn) [DOXAZOSIN]	Not Active	Not Active	Not Active	Not Active	Not Active	Not Active	Not Active			Not Active	Not Active								
NCCCCCC(=O)O [AMINOCAPROIC ACID]	Not Active	Not Active	Not Active	Not Active	Not Active	Not Active	Not Active	Not Active	Not Active	Not Active	Not Active								
CC(C)(C)NCC(O)c1cc(Cl)c(N)c(Cl)c1 (stereo not drawn) [CLENBUTEROL]	Not Active	Not Active	Not Active	Not Active	Not Active	Not Active	Not Active	Not Active	Not Active	Not Active	Not Active								
CCCN1C[C@H](CSC)C[C@@H]2c3cccc4[nH]cc(c34)C[C@H]21 [PERGOLIDE]	Not Active	Not Active	Not Active	Not Active	Not Active	Not Active	Not Active	Not Active	Not Active	Not Active	Not Active								
CN(C)C(=O)Oc1cc(OC(=O)N(C)C)cc(C(O)CNC(C)(C)C)c1 (stereo not drawn) [BAMBUTEROL]	Not Active	Not Active	Not Active	Not Active	Not Active	Not Active	Not Active	Not Active	Not Active	Not Active	Not Active								
c1ccc(Nc2ccc(Nc3ccccc3)cc2)cc1	Not Active	Not Active	Not Active	Not Active	Not Active	Not Active	Not Active	Not Active	Not Active	Not Active	Not Active								
Cc1cc(C(C#N)c2ccc(Cl)cc2)c(Cl)cc1NC(=O)c1cc(I)cc(I)c1O (stereo not drawn) [CLOSANTEL]	Not Active	Not Active		Not Active	Not Active	Not Active	Not Active	Not Active	Not Active	Not Active	Not Active	2.95							
Cc1ccc2cc3c(ccc4ccccc43)c3c2c1CC3 [3-METHYLCHOLANTHRENE]	Not Active	Not Active		Not Active	Not Active	Not Active	Not Active	Not Active	Not Active	Not Active	Not Active	22.7							
Nc1nc2c(ncn2CCC(CO)CO)c(=O)[nH]1 [PENCICLOVIR]	Not Active	Not Active	Not Active	Not Active	Not Active	Not Active	Not Active	Not Active	Not Active	Not Active	Not Active								
CC1Cc2ccccc2N1NC(=O)c1ccc(Cl)c(S(N)(=O)=O)c1 (stereo not drawn) [INDAPAMIDE]	Not Active	Not Active	Not Active	Not Active	Not Active	Not Active	Not Active	Not Active	Not Active	Not Active	Not Active								
Cc1ccc(-c2cc(C(F)(F)F)nn2-c2ccc(S(N)(=O)=O)cc2)cc1 [CELECOXIB]	Not Active	Not Active	Not Active	Not Active	Not Active	Not Active	Not Active	Not Active	Not Active	Not Active	Not Active								
CCCCc1nc(Cl)c(CO)n1Cc1ccc(-c2ccccc2-c2nnn[nH]2)cc1 [LOSARTAN]	Not Active	Not Active	Not Active	Not Active	Not Active	Not Active	Not Active	Not Active	Not Active	Not Active	Not Active								
CC(NC(C)(C)C)C(=O)c1cccc(Cl)c1 (stereo not drawn) [BUPROPION]	Not Active	Not Active	Not Active	Not Active	Not Active	Not Active	Not Active			Not Active	Not Active								
COc1cc2c3cc1Oc1cc(ccc1O)C[C@@H]1c4c(cc(OC)c(O)c4Oc4ccc(cc4)C[C@@H]3N(C)CC2)CC[N+]1(C)C.[Cl-]	Not Active	Not Active	Not Active	Not Active	Not Active	Not Active	Not Active	Not Active	Not Active	Not Active	Not Active								
CCC(C)n1ncn(-c2ccc(N3CCN(c4ccc(OCC5COC(Cn6cncn6)(c6ccc(Cl)cc6Cl)O5)cc4)CC3)cc2)c1=O (stereo not drawn) [ITRACONAZOLE]	Not Active	Not Active	Not Active	Not Active	Not Active	Not Active	Not Active	Not Active	Not Active	Not Active	Not Active								
CADMIUM ACETATE	Not Active	Not Active	Not Active	Not Active	Not Active	Not Active	Not Active	Not Active	Not Active	Not Active	Not Active		Not Active	Not Active	Not Active	Not Active	Not Active		
C[C@H]1O[C@@H](O[C@H]2[C@@H](O)C[C@H](O[C@H]3[C@@H](O)C[C@H](O[C@H]4CC[C@@]5(C)[C@H](CC[C@@H]6[C@@H]5C[C@@H](O)[C@]5(C)[C@@H](C7=CC(=O)OC7)CC[C@]65O)C4)O[C@@H]3C)O[C@@H]2C)C[C@H](O)[C@@H]1O [DIGOXIN]	Not Active	Not Active	Not Active	Not Active	Not Active	Not Active	Not Active	Not Active	Not Active	Not Active	Not Active								
Cc1ccc(N(CC2=NCCN2)c2cccc(O)c2)cc1 [PHENTOLAMINE]	Not Active	Not Active	Not Active	Not Active	Not Active	Not Active	Not Active			Not Active	Not Active								
N=C(N)NCCN1CCCCCCC1 [GUANETHIDINE]	Not Active	Not Active	Not Active	Not Active	Not Active	Not Active	Not Active			Not Active	Not Active								
CN(C)CCCN1c2ccccc2Sc2ccc(Cl)cc21 [CHLORPROMAZINE]	Not Active	Not Active	Not Active	Not Active	Not Active	Not Active	Not Active			Not Active								7.62	7.15
CNCCCN1c2ccccc2CCc2ccccc21 [DESIPRAMINE]	Not Active	Not Active	Not Active	Not Active	Not Active	Not Active	Not Active			Not Active	Not Active								
Nc1nc2c(ncn2COCCO)c(=O)[nH]1 [ACYCLOVIR]	Not Active	Not Active	Not Active	Not Active	Not Active	Not Active	Not Active			Not Active	Not Active								
O=C(CCCN1CC=C(n2c(=O)[nH]c3ccccc32)CC1)c1ccc(F)cc1 [DROPERIDOL]	Not Active	Not Active	Not Active	Not Active	Not Active	Not Active	Not Active			Not Active	Not Active								
CCOC(=O)C1=C(COCCN)NC(C)=C(C(=O)OC)C1c1ccccc1Cl (stereo not drawn) [AMLODIPINE]	Not Active	Not Active	Not Active	Not Active	Not Active	Not Active	Not Active			Not Active	Not Active								
